Measurements as given in patent publication US7537786B2, “Complex of drug-carbon nanohorn and a process for producing the complex” (NEC Corporation, priority 2005, dated 2009).

What was measured:
[1] = tested on: NCI-H460 cells; experiment: WST-1 assay for cancer cell viability; format: cell-based, human; settings: WST-1, incubation 46 and 72 hours
Protocol: The effect of CDDP released from CNHox was examined using the WST-1 assay. The CDDP-CNHox powder was added to human derived lung cancer cells NCI-H460. CDDP is a drug which has a effect on human lung cancer. These cells were maintained in RPMI-1640 medium containing 5% FBS at 37° C. in a humidified atmosphere with CO2 and air. For these cells, CDDP-CNHox or CDDP or CNHox was added respectively, and after the addition, each sample was examined. NCI-H460 cells were seeded at 4,000 cells/well and were cultured for 43 hours. Meanwhile, the cells were cultured for 67 hours when seeded at 2,500 cells/well (no addition of CDDP-CNHox or CDDP). And then it was confirmed that the NCI-H460 cells were extinct by drug addition. The amount of the extinct NCI-H460 cells was estimated by observing the decrease in the emission intensity to indicate the absorbency of formazan (with blue dye) showing the living of cells. And also, the NCI-H460 cells were directly observed using the optical microscope.

[2] = tested on: MC3T3-E1 cells; experiment: ALP (alkaline phosphatase) activity assay; format: cell-based, mouse; settings: MC3T3-E1, 10 days, differentiation-inducing medium with rhBMP-4
Protocol: Mouse osteoblastic cell (MC3T3-E1) lines were generously provided by Dr. Imamura (Cancer Institute, Japanese Foundation For Cancer Research). MC3T3-E1 cells were maintained in α-minimum essential medium (α-MEM) supplied with 5% FBS, […] in continuous culture at 37° C. in a humidified atmosphere of 5% CO2 and 95% air, and these cells were passaged every 3-4 days.
MC3T3-E1 cells were plated at 26,000 cells/cm^2 in 24 well plates and were grown until confluent. Next, the culture medium was exchanged with differentiation-inducing medium which consisted of α-MEM, 5% FBS, 100 U/ml penicillin, 100 μg/ml streptomycin, 50 μM ascorbic acid, 10 mM β-glycerophosphate and 20 ng/ml rhBMP-4. […]
For ALP activity assay, the medium was removed, and the cells were washed 3 times with TBS (20 mM Tris pH7.4, 150 mM NaCl), then harvested into 250 μl of TBS (contaning 0.2% Triton X-100) by scraping them on ice, and sonicated on ice for 5 min. […] The supernatant was mixed with p-nitro phosphate according to the manufacture's protocol, and the amount of p-nitrophenol released in 10 min was assessed by spectrophotometry (405 nm) with model 550 microplate-reader (Bio-Rad). Protein concentration of supernatant was assessed with protein quantitative assay kit (DC Protein Assay Kit) by the Lowry method. […]

Structure (SMILES) | viability rate of NCI-H460 cells [1] | concentration at which ALP activity was increased [2]
[NH2][Pt]([NH2])([Cl])[Cl] [CDDP, cisplatin] | decreased dose-dependently | –
C[C@@H]1C[C@H]2[C@@H]3CCC4=CC(=O)C=C[C@]4(C)[C@@]3(F)[C@@H](O)C[C@]2(C)[C@@]1(O)C(=O)CO [DEX, Dexamethasone] | – | no less than 0.05 μM
